Laboratory results published in PubChem BioAssay (NCI).
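Assay format: 96-well plates, 48-hour exposure. Abbreviation: GI50, concentration required for 50% inhibition of growth. TGI: concentration producing complete growth inhibition.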

Columns and labels:
Assay in all cases: NCI tumour cell line growth inhibition, 48 h
786-0 renal = system: 786-0 renal
DU-145 prostate = system: DU-145 prostate
NCI-H23 lung = system: NCI-H23 lung
NCI/ADR-RES ovarian = system: NCI/ADR-RES ovarian
OVCAR-3 ovarian = system: OVCAR-3 ovarian
OVCAR-4 ovarian = system: OVCAR-4 ovarian
OVCAR-8 ovarian = system: OVCAR-8 ovarian
SK-MEL-28 melanoma = system: SK-MEL-28 melanoma
SK-OV-3 ovarian = system: SK-OV-3 ovarian
UACC-62 melanoma = system: UACC-62 melanoma

Row | SMILES | GI50 (786-0 renal) | TGI (786-0 renal) | GI50 (DU-145 prostate) | TGI (DU-145 prostate) | GI50 (NCI-H23 lung) | TGI (NCI-H23 lung) | GI50 (NCI/ADR-RES ovarian) | TGI (NCI/ADR-RES ovarian) | GI50 (OVCAR-3 ovarian) | TGI (OVCAR-3 ovarian) | GI50 (OVCAR-4 ovarian) | TGI (OVCAR-4 ovarian) | GI50 (OVCAR-8 ovarian) | TGI (OVCAR-8 ovarian) | GI50 (SK-MEL-28 melanoma) | TGI (SK-MEL-28 melanoma) | GI50 (SK-OV-3 ovarian) | TGI (SK-OV-3 ovarian) | GI50 (UACC-62 melanoma) | TGI (UACC-62 melanoma)
1 | C[C@@H]1CN2[C@H]3[C@@H]1CC[C@]31CCC(=O)O[C@]1(C)[C@@H]1CC[C@H]3CCC=C3[C@@H]12 | > 70 µM | > 70 µM | > 70 µM | > 70 µM | > 70 µM | > 70 µM | > 70 µM | > 70 µM | > 70 µM | > 70 µM | > 70 µM | > 70 µM | > 70 µM | > 70 µM | > 70 µM | > 70 µM | > 70 µM | > 70 µM | > 70 µM | > 70 µM
2 | CC(=O)OCC(=O)C1(O)C(C)CC2C3C=C(C)C4=Cc5c(cnn5-c5ccccc5)CC4(C)C3C(O)CC21C (stereo not drawn) | 1.49 µM | 3.22 µM | 1.93 µM | 5.74 µM | 2.2 µM | 5.78 µM | 1.94 µM | 8.73 µM | 1.67 µM | 3.96 µM | 2.29 µM | 20 µM | 2.46 µM | 25.5 µM | 1.41 µM | 3.01 µM |  | 5.71 µM | 1.77 µM | 3.8 µM
3 | CCN1C(=O)N(CC)C2C1NN=c1s/c(=C\c3ccccc3)c(=O)n12 (stereo not drawn) | 0.874 µM | > 100 µM | 0.308 µM | > 100 µM | 0.544 µM | > 100 µM | 0.0799 µM | > 100 µM | 0.0561 µM | 0.354 µM | 0.869 µM | > 100 µM | 0.426 µM | > 100 µM | > 49.1 µM | > 100 µM | 0.311 µM | > 100 µM | 0.0596 µM | > 100 µM
4 | COc1cc(/C=C/C(=O)c2ccc(Nc3nc(Nc4ccccc4)nc(Nc4ccc(Cl)cc4)n3)cc2)cc(OC)c1OC | 9.84 µM | > 32.5 µM | > 32.5 µM | > 32.5 µM | 11.9 µM | > 32.5 µM | 31.5 µM | > 32.5 µM | 8.62 µM | > 32.5 µM | 14 µM | > 32.5 µM | 3.34 µM | > 32.5 µM | 14.5 µM | > 32.5 µM | > 32.5 µM | > 32.5 µM | 14.7 µM | > 32.5 µM
5 | CCS/C(Nc1ccccc1)=C(\C#N)C(=O)N/N=C/c1ccc(Cl)cc1Cl | 3.5 µM | > 100 µM | 3.57 µM | > 100 µM | 6.47 µM | > 100 µM | 3.16 µM | > 100 µM | 2.8 µM | 10.7 µM | 6.57 µM | > 100 µM | 4.81 µM | > 100 µM | 23.6 µM | > 100 µM | 3.72 µM | > 100 µM | 2.74 µM | > 100 µM
6 | Cc1ccc(-c2cc(/C=N/O)on2)cc1 | 50.4 µM | > 100 µM | 68.7 µM | > 100 µM | 73.1 µM | > 100 µM | 45.4 µM | > 100 µM | 58.2 µM | > 100 µM | > 100 µM | > 100 µM | > 100 µM | > 100 µM | > 100 µM | > 100 µM | > 100 µM | > 100 µM | 38.9 µM | > 100 µM
7 | CC(=O)N[C@@H](Cc1ccc(OP(=O)(O)O)cc1)C(=O)N[C@H]1CCC(=O)N2CCC[C@@H](C(=O)NCc3ccc(O)cc3)N2C1=O | > 25 µM | > 25 µM | > 25 µM | > 25 µM | > 25 µM | > 25 µM | > 25 µM | > 25 µM | > 25 µM | > 25 µM | > 25 µM | > 25 µM | > 25 µM | > 25 µM | > 25 µM | > 25 µM | > 25 µM | > 25 µM | > 25 µM | > 25 µM
8 | CCOc1cc(/C=N\NC(=O)N/N=C/c2ccc(O)c(OCC)c2)ccc1O | 7.68 µM | > 100 µM | 2.21 µM | > 100 µM | 4.22 µM | > 100 µM | 3.47 µM | > 100 µM | 0.308 µM | 1.08 µM | 54.3 µM | > 100 µM | 4.26 µM | > 100 µM | 10.3 µM | > 100 µM | 1.25 µM | > 100 µM | 1.79 µM | > 100 µM
9 | C=C(C)[C@@H]1CC[C@]2(C)[C@H](C=CC3=C4C[C@@](C)(CO)CC[C@]4(C)CC[C@]32C)[C@@]1(C)CCCN | 1.68 µM | 3.44 µM | 1.72 µM | 3.15 µM | 1.77 µM | 3.32 µM | 1.74 µM | 3.37 µM | 1.48 µM | 2.85 µM | 1.53 µM | 3.09 µM | 2.13 µM | 4.61 µM | 1.82 µM | 3.25 µM | 1.72 µM | 3.17 µM | 1.78 µM | 3.17 µM
10 | O=C(Nc1ccc(S(=O)(=O)NC2CCCCCC2)cc1)C(c1ccccc1)S(=O)(=O)c1ccc(F)cc1 (stereo not drawn) | 0.448 µM | 2.68 µM | 0.261 µM | 2.68 µM | 0.187 µM | 0.933 µM | 1.24 µM | 4.66 µM | 0.367 µM | 2.85 µM | 0.444 µM | 4.16 µM | 0.702 µM | 4.68 µM | 0.245 µM | 1.02 µM | 0.335 µM | 4.03 µM | 0.137 µM | 0.69 µM
11 | CCc1ccccc1-n1c(N)c(C#N)c(-c2ccc(OC)c(OC)c2)c(C#N)c1=O | 18.8 µM | 33.3 µM | 29.6 µM | > 100 µM | 17 µM | 33.3 µM | 31.9 µM | > 100 µM | 17.3 µM | 33.1 µM | 23.1 µM | 63 µM | 18.5 µM | 37.6 µM | 20.1 µM | 41.8 µM | 17.7 µM | 36.6 µM | 16.3 µM | 37.7 µM
12 | C[C@@H](Oc1cc(-c2cnn(C3CC4(CCCNC4)C3)c2)cnc1N)c1c(Cl)ccc(F)c1Cl (stereo partly drawn) | 1.64 µM | 3.19 µM | 1.88 µM | 6.92 µM | 1.14 µM | 3.41 µM | 2.25 µM | 5.59 µM | 2.02 µM | 5.08 µM | 1.85 µM | 5.56 µM | 2.06 µM | 5.93 µM | 1.54 µM | 3.03 µM | 2.61 µM | 6.96 µM | 1.58 µM | 3.09 µM
13 | CC[C@H](C)[C@H](NC(=O)C12CC(NC(C)=O)(C1)C2)C(=O)N(C)[C@H](C[C@@H](OC(C)=O)c1nc(C(=O)N[C@@H](Cc2ccccc2)C[C@H](C)C(=O)OC)cs1)C(C)C | 0.395 µM | > 16.7 µM | 0.136 µM | > 10.7 µM | 0.65 µM | > 16.7 µM | > 16.7 µM | > 16.7 µM | 0.0494 µM | 0.569 µM | 0.885 µM | > 16.7 µM | 0.519 µM | > 16.7 µM | 1.81 µM | > 16.7 µM | 0.394 µM | > 10.9 µM | 0.0735 µM | > 16.7 µM
14 | ClC1=C(Cl)C(Cl)=C(Cl)C1=Cc1ccc(Cl)cc1 | 0.604 µM | 1.64 µM | 0.629 µM | 2.07 µM | 0.796 µM | 2.85 µM | 0.366 µM | 2.15 µM | 0.309 µM | 0.853 µM | 0.818 µM | 2.34 µM | 0.36 µM | 2.27 µM | 1.4 µM | 2.8 µM | 1.64 µM | 3.55 µM | 0.363 µM | 1.65 µM
15 | C=C1C(=O)OC2CC3(C)OC3C3OC3C3=CC(OC3=O)C12 (stereo not drawn) | 17.2 µM | 33.8 µM | 16.6 µM | 34.3 µM | 13.4 µM | 32.6 µM | 27.2 µM | 69.3 µM | 2.03 µM | 3.61 µM | 2.14 µM | 4.86 µM | 3.32 µM | 19.3 µM | 5.75 µM | 12.5 µM | 25.4 µM | > 57 µM | 9.11 µM | 22.3 µM
16 | CS(=O)(=O)c1nc(Cl)c(Cl)c(C#N)c1Cl |  | 4.11 µM |  | 21.4 µM |  | 9 µM |  | 6.19 µM |  | 4.73 µM |  | 3.34 µM |  | 9.77 µM |  | 4.75 µM |  | 10.7 µM |  | 10.8 µM
17 | N#Cc1c(Oc2ccc(F)c(NC(=O)Cc3cccc(C(F)(F)F)c3)c2)ccc2nc(NC(=O)C3CC3)sc12 | 1.33 µM | > 100 µM | 2.34 µM | > 100 µM | 0.714 µM | > 100 µM | 1.28 µM | > 100 µM | 2.3 µM | > 100 µM | 2.6 µM | > 100 µM | 0.731 µM | > 100 µM | 0.0292 µM | > 100 µM | 1.93 µM | > 100 µM | 0.0262 µM | 
18 | Cc1cccnc1CNC1CC(NCc2ncccc2C)CC(NCc2ncccc2C)C1 (stereo not drawn) | 2.15 µM | 4.55 µM | 1.88 µM | 3.58 µM | 2.8 µM | 6.82 µM | 19.3 µM | > 100 µM | 3.1 µM | 8.94 µM | 2.88 µM | 11.9 µM | 2.2 µM | 4.87 µM | 3.17 µM | 12.4 µM | 1.98 µM | 3.73 µM | 1.82 µM | 3.63 µM
19 | CCCCCCC1N=C(N)N=C(N)N1c1ccc(Cl)cc1 (stereo not drawn) | 4.63 µM | 47.1 µM | 12.1 µM | > 100 µM | 5.79 µM | 38 µM | > 100 µM | > 100 µM | 12.2 µM | 32.6 µM | 14.4 µM | 60 µM | 6.43 µM | > 100 µM | 8.66 µM | 21.8 µM | 20.9 µM | 63.1 µM | 8.55 µM | 37.6 µM
